In brackets after ≈: the same amount, converted by molar mass.
Conditions: buffer; pH 7.4; 6.0 h; 150.0 µM

| Structure (SMILES) | solubility kinetic [mg/mL] |
| --- | --- |
| CS(=O)(=O)c1ccc2nc(NC(=O)C3CC3)sc2c1 | 0.0227 (≈ 76.7 µM) |
| CCOC(=O)C1CCN(C(=O)C(C)(C)NC(=O)Nc2ccc(Cl)cc2Cl)CC1 | 0.037 (≈ 86 µM) |
| CC[C@H]1NC(=O)[C@@H](NC(=O)c2ncccc2O)[C@@H](C)OC(=O)[C@H](c2ccccc2)NC(=O)[C@@H]2CC(=O)CCN2C(=O)[C@H](Cc2ccccc2)N(C)C(=O)[C@@H]2CCCN2C1=O | > 0.1 |
| O=C(N/N=C/c1ccc(O)c(O)c1)c1cc2ccccc2cc1O | 0.0182 (≈ 56.5 µM) |
| CC(=O)c1c(C)[nH]c(C(=O)Nc2cccc(S(=O)(=O)N3CCCCCC3)c2)c1C | 0.00211 (≈ 5.05 µM) |
| Cc1ccnc(NC(=S)N2CCN(c3ccc(Cl)cc3Cl)CC2)c1 | 0.00228 (≈ 5.97 µM) |
| Cc1ccc2nc(NC3=NC(c4[nH]ncc4Cl)C4=C(CCCC4=O)N3)oc2c1 (configuration not stated) | < 0.001 |
| COc1ncccc1-c1cc2c(ccn2CC2CCN([S+](C)(=O)[O-])CC2)c(N2CCOCC2)n1 | 0.0502 (≈ 103 µM) |
| Cn1cc(S(=O)(=O)N2CCOCC2)cc1C(=O)Nc1ccc(Cl)c(C(F)(F)F)c1 | < 0.001 |
| CC(C)CN(C[C@@H](O)[C@H](Cc1ccccc1)NC(=O)O[C@@H]1CO[C@H]2OCC[C@H]21)S(=O)(=O)c1ccc(N)cc1 | > 0.081 |
| Oc1cccc(-c2nc(N3CCOCC3)c3oc4ncccc4c3n2)c1 | < 0.001 |
| CCCCn1cnc2cc(NCc3ccc(OCC)cc3)ccc21 | 0.0101 (≈ 31.2 µM) |
| COc1ccc(-c2csc(NC(=O)c3ccncc3NS(=O)(=O)c3ccc(C)cc3)n2)cc1 | 0.0548 (≈ 114 µM) |
| CCOC(=O)C1CCN(c2ncc(-c3ccc4c(c3)OCCCO4)s2)CC1 | < 0.001 |
| O=C(Nc1ccc(OC(F)(F)F)cc1)c1sccc1NCc1ccnc2ccccc12 | < 0.001 |
| Brc1ccc(-c2csc(N3CCNCC3)n2)cc1 | 0.00659 (≈ 20.3 µM) |
| COc1ccc(-n2nc3c(N4CCCC(C(=O)NCCc5ccc(C)cc5)C4)nnc(C)c3c2C)cc1 (configuration not stated) | 0.00404 (≈ 8.1 µM) |
| O=S(=O)(Nc1nccs1)c1ccc(NCc2cccc3cc[nH]c23)cc1 | 0.0205 (≈ 53.2 µM) |

| Structure (SMILES) | solubility kinetic [mg/mL] |
| --- | --- |
| O=C(O)CNC(=O)c1c(O)c2ccccc2n(Cc2ccccc2)c1=O | > 0.052 |
| CC(C)(C)c1ccc(C(=O)Nc2cn3cc(-n4ccnc4)ccc3n2)cc1 | < 0.001 |
| CCCc1cc(C)[nH]c(=O)c1CNC(=O)c1cc(-c2ccc(N3CCN(C(C)C)CC3)nc2)cc2c1cnn2C(C)C | 0.0411 (≈ 72.1 µM) |
| Cc1ccc(S(=O)(=O)Nc2cnccc2C(=O)Nc2nc(-c3ccc(Cl)cc3)cs2)cc1 | < 0.001 |
| CCOc1cc(=O)n2c(c1C(=O)Nc1cc(OC)c(Cl)cc1OC)CCCC2 | > 0.06 |
| NC(=O)C1CCN(c2nc(-c3ccc(F)cc3)cs2)CC1 | > 0.045 |
| O=C(CSc1nc(-c2ccc(F)cc2)[nH]c1-c1ccc(F)cc1)Nc1ccc2c(c1)OCCO2 | < 0.001 |
| COc1ccc(Nc2nc(-c3cccc(OC)c3)no2)cc1 | < 0.001 |
| CC(C)(C)NS(=O)(=O)c1ccc(-c2ccc3[nH]nc(N)c3c2)cc1 | > 0.051 |
| Fc1cnc(-c2ccccc2C(F)F)nc1NCc1ccc(-c2ccn[nH]2)cc1 | < 0.001 |
| O=C(C1CCN(c2nc(-c3ccc(Br)cc3)cs2)CC1)N1CCOCC1 | 0.00727 (≈ 16.7 µM) |
| C[C@H]1CCC[C@H](O)CCC/C=C/c2cc(O)cc(O)c2C(=O)O1 | 0.0171 (≈ 53.2 µM) |
| NC(=O)C1CCN(c2nc(-c3ccc(C(F)(F)F)cc3)cs2)CC1 | 0.00198 (≈ 5.56 µM) |
| CC(=O)c1c(C)[nH]c(C(=O)Nc2cccc(S(=O)(=O)N3CCCCC3)c2)c1C | 0.00457 (≈ 11.3 µM) |
| COc1ccc(C2c3c(oc4ccc(Cl)cc4c3=O)C(=O)N2CCCN(C)C)cc1OC (configuration not stated) | > 0.067 |
| CN1CCN(C(=O)c2ccc3cc(CCNc4ncnc5ccc(C#N)cc45)ccc3c2)CC1 | 0.0497 (≈ 110 µM) |
| CNCc1ccc(-c2cc(-c3nc(-c4ccc(S(=O)(=O)C(C)C)cc4)cnc3N)on2)cc1 | 0.0273 (≈ 59 µM) |
| NC(=O)C1CCN(c2nc(-c3cccc(C(F)(F)F)c3)cs2)CC1 | 0.00241 (≈ 6.78 µM) |

Second part, the compound after the results:

| solubility kinetic [mg/mL] | Structure (SMILES) |
| --- | --- |
| < 0.001 | CCN1C(=O)c2ccccc2S(=O)c2ccc(NC(=O)Cc3ccc(F)cc3)cc21 (configuration not stated) |
| 0.0319 (≈ 92.4 µM) | O=S(=O)(Nc1nccs1)c1ccc(NCc2ccccc2)cc1 |
| 0.00236 (≈ 5.28 µM) | O=C(C1CC(=O)N(c2n[nH]c3ccccc23)C1)N1CCC(c2noc3cc(F)ccc23)CC1 (configuration not stated) |
| 0.0132 (≈ 39.8 µM) | Fc1ccccc1CNCc1ccc(-c2ccnc3[nH]ccc23)cc1 |
| 0.0112 (≈ 32.3 µM) | O=C(c1ccc2ncccc2c1)N1CCc2c(nc3cc[nH]n3c2=O)C1 |
| > 0.055 | O=C(Nc1ncccc1O)c1ccc(S(=O)(=O)Nc2ccccc2)cc1 |
| 0.0156 (≈ 43.8 µM) | Cc1cc(-c2nnc3n2CCCCC3)c(C)n1-c1cccc2ccccc12 |
| 0.00725 (≈ 20 µM) | CC1CC(C)(C)N(C(=O)CN2C(=O)c3ccccc3C2=O)c2ccccc21 (configuration not stated) |
| 0.00213 (≈ 5.49 µM) | CC(C)c1ccccc1-c1ncc(F)c(NCc2ccc(-n3ccnn3)cc2)n1 |
| < 0.001 | OCC(O)CCO/N=C1/C(c2c(O)[nH]c3ccccc23)=Nc2ccccc21 (configuration not stated) |
| 0.00568 (≈ 16.5 µM) | CCOC(=O)c1nn(-c2ccc(OC)cc2)c(=O)c2c(N)scc12 |
| < 0.001 | O=C1c2ccccc2C2=Nc3ccccc3SC(c3ccc(Cl)cc3)C12 (configuration not stated) |
| 0.00145 (≈ 3.38 µM) | CCOC(=O)c1ccc(N2C(=O)c3n[nH]c(-c4ccco4)c3C2c2ccc(C)cc2)cc1 (configuration not stated) |
| 0.00456 (≈ 9.71 µM) | O=C(Nc1ccccc1-c1cn2c(CN3CCNCC3)csc2n1)c1cnc2ccccc2n1 |
| < 0.001 | CNc1oc(-c2cccc3ccccc23)nc1C(=O)OC |
| 0.0272 (≈ 72.5 µM) | COc1cccc(CNc2ccc(S(=O)(=O)Nc3nccs3)cc2)c1 |
| 0.00649 (≈ 15.4 µM) | CCOC(=O)c1cnc2ccc(-c3cncc(NS(=O)(=O)c4ccccc4)c3)cn12 |
| 0.0011 (≈ 3.65 µM) | Cc1cc(Nc2nc(-c3ccncc3)nc3ccccc23)n[nH]1 |

| solubility kinetic [mg/mL] | Structure (SMILES) |
| --- | --- |
| > 0.039 | O=C1Nc2ccccc2/C1=C\c1ccc(C(=O)O)cc1 |
| 0.000132 (≈ 0.326 µM) | CC(C)c1ccccc1-c1ncc(F)c(NCc2ccc(-c3cccnc3)s2)n1 |
| > 0.043 | c1ccc2c(N3CCOCC3)nc(-c3ccncc3)nc2c1 |
| > 0.072 | Cc1nc(Nc2n[nH]c3c2CN(C(=O)N[C@H](CN(C)C)c2ccccc2)C3(C)C)c2sccc2n1 |
| 0.0556 (≈ 124 µM) | Cc1nn(Cc2ccccc2Cl)c(C)c1CN(C)CC(O)COc1ccc(Cl)cc1 (configuration not stated) |
| > 0.061 | COc1ccc(-n2nc(C3CCCN(C(=O)Cc4ccc(F)cc4)C3)[nH]c2=O)cc1 (configuration not stated) |
| 0.0106 (≈ 27.5 µM) | O=C(CCc1ccccc1)Nc1ccc(S(=O)(=O)Nc2nccs2)cc1 |
| > 0.057 | CNC(=O)C1=C(C)NC(Nc2nc3ccccc3o2)=NC1c1[nH]ncc1Cl (configuration not stated) |
| 0.0369 (≈ 117 µM) | CN1CCCN(C(c2ccccc2)c2ccc(Cl)cc2)CC1 (configuration not stated) |
| 0.00449 (≈ 19.1 µM) | CNc1nccc(-c2cccc3ccccc23)n1 |
| 0.0346 (≈ 73.9 µM) | Cc1cc(F)ccc1S(=O)(=O)Nc1cnccc1C(=O)Nc1nc(-c2ccccc2)cs1 |
| > 0.039 | Cc1ccc(-c2cc(C(=O)O)c3ccccc3n2)cc1 |
| > 0.075 | c1ccc(Nc2cc3c(cn2)CN(Cc2ccsc2)CCN3)cc1 |
| > 0.05 | O=C(c1ccc2c(c1)ncn2-c1cccc(Cl)c1)N1CCCCC1 |
| 0.0142 (≈ 37.6 µM) | COC(=O)CNC(=O)c1nc(-c2ccc(Cl)cc2Cl)c2cnccn12 |
| > 0.056 | Cc1ccccc1C(=O)NC1CCN(c2ccc3nnc(C4CC4)n3n2)CC1 |
| > 0.043 | Cc1csc2c1c(=O)n(O)c(=O)n2Cc1ccccc1 |
| > 0.086 | COc1ccc(OC)c(CN2CCNc3cc(Nc4ccccc4)ncc3C2)c1 |
